This note sets out measurements from patent EP0563732A1, “7-oxo-7H-pyrido(1,2,3-de)(1,4)benzoxazinecarboxylic acids and esters and their use as antiviral agents” (BAYER AG, priority 1992, dated 1993).

The structures appear in SMILES notation. Counter-ions that a name gives are not always drawn.

The subject of this experiment is Hepatitis B Virus. Nature of the experiment: HBV test system: HBV-DNA in the supernatant of transfected hepatoma cells (PEG precipitation, non-radioactive HBV DNA probe). The experiment is classed as cell-based. Particulars: HepG2.2.15, 50% inhibition of HBV-DNA concentration in supernatant, HEP G2.2.15 cells, read-out: IC₅₀. The text has this:
Der Nachweis wurde in mit Hepatitis B Virus DNA transfizierten Hepatomzellen (HEP G2.2.15) geführt. Die Ergebnisse der unten aufgeführten Beispiele wurden zu dem in der folgenden Literaturangabe [Sells, M.A.; Chen, M.L., Acs, G., Proc. Natl. Acad. Sci. USA S. 1005 - 1009, Vol. 84 (1987] beschriebenen HBV-Testsystem ermittelt:
Transfizierte Hepatomzellen (HEP G2.2.15) wurden mit verschiedenen Konzentrationen an der jeweiligen Verbindung inkubiert. Durch Behandlung der transfizierten Hepatomzellinie HEP G2.2.15 mit den erfindungsgemäßen Verbindungen konnte das […] der virusspezifischen HBV-DNA im Überstand sowie eine Reduktion des HBsAg Spiegels gezeigt werden. Es wurde weiter gefunden, daß die erfindungsgemäßen Verbindungen zu einer Reduktion der replikativen Intermediate der Hepatitisviren führen. Im Überstand der Zellkulturen wurde nach PEG Fällung der Gehalt an HBV-DNA bestimmt. Dies geschah unter Verwendung einer nicht radioaktiv markierten HBV genomischen DNA Probe [Pauly, P., 1982, Ph.D. Thesis, University of Göttingen, F.R.G.; Köchel et al., 1990, EMBL, Accession-Nr. X 51790]. Gleichzeitig erfolgte der Nachweis der Beeinflussung der HBsAg Bildung mittels eines kommerziell erhältlichen Elisa Tests. Die angegebenen IC₅₀-Werte beziehen sich auf die Substratkonzentrationen, die unter den oben aufgeführten Testbedingungen eine 50%ige Hemmung der HBV-DNA Konzentration im Überstand bewirken. Tabelle A
Gleichzeitig erfolgte die Bestimmung des möglicherweise vorhandenen cytotoxischen Einflusses der erfindungsgemäßen Verbindungen mittels Kristallviolettfärbung bzw. über den Einbau von radioaktiv markiertem Thymidin in die zelluläre DNA.
For the compound `CCOC(=O)c1cn2c3c(c(N4CCC(N)C4)c(F)cc3c1=O)OC(c1ccc(OC)cc1)=C2` (centres unmarked) [Beispiel 38, 10-(3-Amino-1-pyrrolidinyl)-9-fluor-2-(4-methoxyphenyl)-7-oxo-7H-pyrido[1,2,3-de][1,4]benzoxacin-6-carbonsäureethylester-hydrochlorid], the IC50 came out at 5000 nM.

As for `CC1=COc2c(N3CCNCC3)c(F)cc3c(=O)c(C(=O)O)cn1c23` [Beispiel 39], the IC50 amounted to 100 nM.

Take `COC(=O)c1cn2c3c(c(N4CCNCC4)c(F)cc3c1=O)OC=C2C` [Beispiel 33]: the IC50 came to 500 nM.

Turning to `CC1=COc2c(N3CCOCC3)c(F)cc3c(=O)c(C(=O)O)cn1c23` [Beispiel 16], the IC50 was determined as 5000 nM.

With `CN1CCN(c2c(F)cc3c(=O)c(C(=O)O)cn4c3c2OC(C(C)(C)C)=C4)CC1` [Beispiel 1, 2-tert-Butyl-9-fluor-10-(4-methyl-1-piperazinyl)-7-oxo-7H-pyrido[1,2,3-de][1,4]-benzoxacin-6-carbonsäure], the IC50 is 100 nM.
